Data taken from patent US20230346670A1, “Prebiotic Oral Care Compositions and Methods” (Colgate-Palmolive Company, priority 2020, published 2023).

Experiments:
Format in all cases: cell-based
S. mitis = experiment: Multi-species biofilm composition, absolute abundance (Geq/mL); conditions: repeated rinsing
Protocol: (§1) Biofilms are grown vertically on Calcium Deficient Hydroxyapatite (CAD-HA) disks (Hitemco Medical, Old Bethpage, USA) using the Amsterdam Active Adhesion model. Biofilms are allowed to establish during 24 h (37° C., 170 rpm) under microaerophilic conditions (6% O2, 7% CO2, 7% H2, 80% N2). After this 24 h, disks are rinsed 3 times a day for 3 minutes (RT, 250 rpm), for 3 consecutive days, by transferring the lid containing the disks to a new 24-well plate containing 2 mL/well of the appropriate substrate solution. As a negative control, PBS (pH 5.7) without substrate supplementation is used.
(§2) N-acetyl-D-glucosamine (NADG), α-D-lactose, D-(+)-trehalose and D-(+)-raffinose are selected to determine their effects on multi-species biofilm composition. Repeated rinsing of the biofilms with the substrates at a concentration of 1 M results in a significant decrease in absolute numbers in at least four of the pathogenic bacterial species tested in the assay, in comparison to the control, the results of which are described in Table 1 below. Note, NADG decreased absolute numbers of S. sobrinus. Absolute abundances of bacterial species are shown as mean ± SD (n = 3) logarithmic values of the genome equivalents per millilitre (log(Geq/mL)).

S. oralis = experiment: as above; conditions: repeated rinsing
Protocol: as §1, §2

S. sobrinus = experiment: as above; conditions: repeated rinsing
Protocol: as §1, §2

P. gingivalis = experiment: as above; conditions: repeated rinsing
Protocol: as §1, §2

A. naeslundii = experiment: as above; conditions: repeated rinsing
Protocol: as §1, §2

S. gordonii = experiment: as above; conditions: repeated rinsing
Protocol: as §1, §2

P. intermedia = experiment: as above; conditions: repeated rinsing
Protocol: as §1, §2

A. actinomycetemcomitans = experiment: as above; conditions: repeated rinsing
Protocol: as §1, §2

multi-species biofilms = experiment: Organic acid levels in supernatant of multi-species biofilms (ion chromatography); conditions: >0 production, <0 consumption, n = 3
Protocol: as §1
Levels of organic acids in the filter sterilized supernatant of the multi-species biofilms are measured using a 761 Compact Ion Chromatograph (Metrhohm, Switzerland) with a Metrosep Organic acids Guard/4.6 guard column. The supernatants from the substrate-treated multi-species biofilms are analyzed to gain more insight into the influence of the substrates on organic acid consumption/production.

F. nucleatum = experiment: Multi-species biofilm composition, absolute abundance (Geq/mL); conditions: repeated rinsing
Protocol: as §1
as §2, with “Repeated rinsing of the biofilms with the substrates at a concentration of 1 M results in a significant” left out

S. mutans = experiment: as above; conditions: repeated rinsing
Protocol: as §1
as §2, with “Repeated rinsing of the biofilms with the substrates at a concentration of 1 M results in a significant” left out

V. parvula = experiment: as above; conditions: for absolute abundance of V. parvula (VP), mean ± SD log (Geq/mL): repeated rinsing
Protocol: as §1
as §2, with “Repeated rinsing of the biofilms with the substrates at a concentration of 1 M results in a significant” left out

S. sanguinis = experiment: as above; conditions: repeated rinsing
Protocol: as §1
as §2, with “Repeated rinsing of the biofilms with the substrates at a concentration of 1 M results in a significant” left out

A. viscosus = experiment: as above; conditions: repeated rinsing
Protocol: as §1
as §2, with “Repeated rinsing of the biofilms with the substrates at a concentration of 1 M results in a significant” left out

S. salivarius = experiment: as above; conditions: repeated rinsing
Protocol: as §1
as §2, with “Repeated rinsing of the biofilms with the substrates at a concentration of 1 M results in a significant” left out

[1] = system: P. intermedia virulence genes; experiment: Virulence gene expression in multi-species biofilm (SYBR RT-qPCR); conditions: relative to control = 1
Protocol: as §1
The virulence of the substrate-treated multi-species biofilms are evaluated by analyzing the relative expression of 33 genes that are recognized as being related to some form of virulence and from 4 periodontal pathogens.
Expression of bacterial virulence genes is analyzed through SYBR RT-qPCR and normalized for bacterial housekeeping gene expression. […] These effects are illustrated in Tables 6a and 6b:
Note, for Table 6d, fold changes in virulence gene expression are determined relatively to the control condition through the 2^^-ΔΔCt method and are shown as the geometric mean (C.I.) (n = 3) of the 2^^-ΔΔCt values. All substrates are dissolved in PBS at a concentration of 1 M (upper part) or 1%(w/v) (lower part). Values between 0 and 1 represent relative downregulation, values >1 represent relative upregulation. […] NADG: N-acetyl-D-glucosamine; C.I.: 95% confidence interval.

[2] = substrate 1 M, listed as α-D-lactose
[3] = lower part of Table 6d, head prints 1 M (lower part 1%(w/v))
[4] = upper part of Table 6d, substrate 1 M, n = 3

Structure (SMILES): OC[C@H]1O[C@@H](O[C@H]2[C@H](O)[C@@H](O)[C@@H](O)O[C@@H]2CO)[C@H](O)[C@@H](O)[C@H]1O [D-lactose, α-D-lactose]
- absolute abundance of S. mitis, mean ± SD log (Geq/mL) (S. mitis; substrate 1% (w/v)): 2.65 ± 0.00 log (Geq/mL)
- absolute abundance of S. mitis, mean ± SD log (Geq/mL) (S. mitis; substrate 1 M in PBS, n = 3): 3.17 ± 0.75 log (Geq/mL)
- absolute abundance of S. oralis, mean ± SD log (Geq/mL) (S. oralis; substrate 1% (w/v)): 6.6 ± 0.17 log (Geq/mL)
- absolute abundance of S. oralis, mean ± SD log (Geq/mL) (S. oralis; substrate 1 M in PBS, n = 3): 7.45 ± 0.46 log (Geq/mL)
- absolute abundance of S. sobrinus, mean ± SD log (Geq/mL) (S. sobrinus; substrate 1% (w/v)): 5.27 ± 0.24 log (Geq/mL)
- absolute abundance of S. sobrinus, mean ± SD log (Geq/mL) (S. sobrinus; substrate 1 M in PBS, n = 3): 7.82 ± 0.11^∗ log (Geq/mL)
- absolute abundance of P. gingivalis (Pg), mean ± SD log (Geq/mL) (P. gingivalis; substrate 1% (w/v)): 6.93 ± 0.10 log (Geq/mL)
- absolute abundance of P. gingivalis (Pg), mean ± SD log (Geq/mL) (P. gingivalis; substrate 1 M in PBS, n = 3): 4.26 ± 0.51^∗ log (Geq/mL)
- absolute abundance of A. naeslundii (An), mean ± SD log (Geq/mL) (A. naeslundii; substrate 1% (w/v)): 7.75 ± 0.24 log (Geq/mL)
- absolute abundance of A. naeslundii (An), mean ± SD log (Geq/mL) (A. naeslundii; substrate 1 M in PBS, n = 3): 4.86 ± 0.19^∗ log (Geq/mL)
- absolute abundance of S. gordonii, mean ± SD log (Geq/mL) (S. gordonii; substrate 1% (w/v)): 8.4 ± 0.11 log (Geq/mL)
- absolute abundance of S. gordonii, mean ± SD log (Geq/mL) (S. gordonii; substrate 1 M in PBS, n = 3): 9.31 ± 0.41 log (Geq/mL)
- absolute abundance of P. intermedia (Pi), mean ± SD log (Geq/mL) (P. intermedia; substrate 1% (w/v)): 8.13 ± 0.25 log (Geq/mL)
- absolute abundance of P. intermedia (Pi), mean ± SD log (Geq/mL) (P. intermedia; substrate 1 M in PBS, n = 3): 4.05 ± 0.61^∗ log (Geq/mL)
- absolute abundance of A. actinomycetemcomitans (Aa), mean ± SD log (Geq/mL) (A. actinomycetemcomitans; substrate 1% (w/v)): 9.44 ± 0.41 log (Geq/mL)
- absolute abundance of A. actinomycetemcomitans (Aa), mean ± SD log (Geq/mL) (A. actinomycetemcomitans; substrate 1 M in PBS, n = 3): 7.87 ± 0.04^∗ log (Geq/mL)
- acetate level in biofilm supernatant, mean ± SD (multi-species biofilms; substrate 1% (w/v)): 367 ± 33 mg/L
- butyrate level in biofilm supernatant, mean ± SD (multi-species biofilms; substrate 1% (w/v)): 2061 ± 121 mg/L
- formate level in biofilm supernatant, mean ± SD (multi-species biofilms; substrate 1% (w/v)): 3929 ± 253 mg/L
- lactate level in biofilm supernatant, mean ± SD (multi-species biofilms; substrate 1% (w/v)): -125 ± 0 mg/L
- propionate level in biofilm supernatant, mean ± SD (multi-species biofilms; substrate 1% (w/v)): 2140 ± 141 mg/L
- acetate level in biofilm supernatant, mean ± SD (multi-species biofilms; substrate 1 M): 881 ± 73^∗ mg/L
- butyrate level in biofilm supernatant, mean ± SD (multi-species biofilms; substrate 1 M): 0±0^∗ mg/L
- formate level in biofilm supernatant, mean ± SD (multi-species biofilms; substrate 1 M): 84 ± 9^∗ mg/L
- lactate level in biofilm supernatant, mean ± SD (multi-species biofilms; substrate 1 M): 3791 ± 169^∗ mg/L
- propionate level in biofilm supernatant, mean ± SD (multi-species biofilms; substrate 1 M): 1306 ± 175^∗ mg/L
- acetate level in biofilm supernatant, mean ± SD (multi-species biofilms; [2]): 881 ± 73 mg/L
- butyrate level in biofilm supernatant, mean ± SD (multi-species biofilms; [2]): 0 ± 0 mg/L
- formate level in biofilm supernatant, mean ± SD (multi-species biofilms; [2]): 84 ± 9 mg/L
- lactate level in biofilm supernatant, mean ± SD (multi-species biofilms; [2]): 3791 ± 169 mg/L
- propionate level in biofilm supernatant, mean ± SD (multi-species biofilms; [2]): 1306 ± 175 mg/L
- absolute abundance of F. nucleatum (Fn), mean ± SD log (Geq/mL) (F. nucleatum; substrate 1% (w/v)): 9.39 ± 0.42 log (Geq/mL)
- absolute abundance of F. nucleatum (Fn), mean ± SD log (Geq/mL) (F. nucleatum; substrate 1 M in PBS, n = 3): 5.49 ± 0.46^∗ log (Geq/mL)
- absolute abundance of S. mutans, mean ± SD log (Geq/mL) (S. mutans; substrate 1% (w/v)): 7.48 ± 0.14 log (Geq/mL)
- absolute abundance of S. mutans, mean ± SD log (Geq/mL) (S. mutans; substrate 1 M in PBS, n = 3): 8.00 ± 0.56 log (Geq/mL)
- absolute abundance of V. parvula (VP), mean ± SD log (Geq/mL) (V. parvula; substrate 1% (w/v)): 9.92 ± 0.20 log (Geq/mL)
- reduction of V. parvula numbers in comparison to the control (V. parvula; substrate 1 M): ~ 0.7 log(Geq/mL)
- absolute abundance of V. parvula (VP), mean ± SD log (Geq/mL) (V. parvula; substrate 1 M in PBS, n = 3): 9.45 ± 0.15^∗ log (Geq/mL)
- absolute abundance of S. sanguinis, mean ± SD log (Geq/mL) (S. sanguinis; substrate 1% (w/v)): 8.99 ± 0.54 log (Geq/mL)
- absolute abundance of S. sanguinis, mean ± SD log (Geq/mL) (S. sanguinis; substrate 1 M in PBS, n = 3): 5.80 ± 1.09 log (Geq/mL)
- absolute abundance of A. viscosus (Av), mean ± SD log (Geq/mL) (A. viscosus; substrate 1% (w/v)): 7.89 ± 0.13 log (Geq/mL)
- absolute abundance of A. viscosus (Av), mean ± SD log (Geq/mL) (A. viscosus; substrate 1 M in PBS, n = 3): 6.78 ± 0.41 log (Geq/mL)
- absolute abundance of S. salivarius, mean ± SD log (Geq/mL) (S. salivarius; substrate 1% (w/v)): 2.65 ± 0.00 log (Geq/mL)
- absolute abundance of S. salivarius, mean ± SD log (Geq/mL) (S. salivarius; substrate 1 M in PBS, n = 3): 6.95 ± 0.14^∗ log (Geq/mL)
- fold change in DnaJ expression, geometric mean (95% C.I.) [1, 3]: 0.29 (0.18-0.47)^∗ fold
- fold change in DnaK expression, geometric mean (95% C.I.) [1, 3]: 1.16 (0.55-2.44) fold
- fold change in ECF expression, geometric mean (95% C.I.) [1, 3]: 0.26 (0.12-0.58)^∗ fold
- fold change in GroES expression, geometric mean (95% C.I.) [1, 3]: 0.91 (0.41-2.03) fold
- fold change in HtpG expression, geometric mean (95% C.I.) [1, 3]: 0.40 (0.15-1.07)^∗ fold
- fold change in KpsD expression, geometric mean (95% C.I.) [1, 3]: 0.72 (0.39-1.35) fold
- fold change in adpc expression, geometric mean (95% C.I.) [1, 3]: 0.41 (0.30-0.55) fold
- fold change in clpB expression, geometric mean (95% C.I.) [1, 3]: 0.85 (0.23-3.13) fold
- fold change in inpA expression, geometric mean (95% C.I.) [1, 3]: 0.52 (0.41-0.66)^∗ fold
- fold change in phg expression, geometric mean (95% C.I.) [1, 3]: 0.39 (0.19-0.77)^∗ fold
- fold change in DnaJ expression, geometric mean (95% C.I.) [1, 4]: 0.25 (0.05-1.25)^∗ fold
- fold change in DnaK expression, geometric mean (95% C.I.) [1, 4]: 0.34 (0.28-0.42)^∗ fold
- fold change in ECF expression, geometric mean (95% C.I.) [1, 4]: 1.72 (0.56-5.25) fold
- fold change in GroES expression, geometric mean (95% C.I.) [1, 4]: 0.29 (0.09-0.91)^∗ fold
- fold change in HtpG expression, geometric mean (95% C.I.) [1, 4]: 0.19 (0.12-0.31)^∗ fold
- fold change in KpsD expression, geometric mean (95% C.I.) [1, 4]: 0.62 (0.21-1.87) fold
- fold change in adpc expression, geometric mean (95% C.I.) [1, 4]: 0.30 (0.23-0.39)^∗ fold
- fold change in clpB expression, geometric mean (95% C.I.) [1, 4]: 0.38 (0.08-1.75)^∗ fold
- fold change in inpA expression, geometric mean (95% C.I.) [1, 4]: 0.47 (0.27-0.82)^∗ fold
- fold change in phg expression, geometric mean (95% C.I.) [1, 4]: 0.12 (0.08-0.18)^∗ fold
